# Laboratory results published in ChEMBL document CHEMBL5608180, “DNA G-quadruplexes in the genome of Trypanosoma cruzi as potential therapeutic targets for Chagas disease: Dithienylethene ligands as effective antiparasitic agents” (Eur J Med Chem, 2024).
# The source made the active and inactive calls. The rule behind the calls is not given here.
# Key:
# Trypanosoma cruzi [1] = assay: Antiparasitic activity against epimastigote form of Trypanosoma cruzi Y(TcII) assessed as inhibition of parasite growth incubated for 96 hrs followed by incubation with resazurin for 4 to 6 hrs by resazurin dye based fluorescence analysis; type: functional, organism-based
# Trypanosoma cruzi [2] = assay: Antiparasitic activity against epimastigote form of Trypanosoma cruzi SOL(TcV) assessed as inhibition of parasite growth incubated for 96 hrs followed by incubation in dark with resazurin for 4 to 6 hrs by resazurin dye based fluorescence analysis; type: functional, organism-based
# Trypanosoma cruzi [3] = assay: Antiparasitic activity against epimastigote form of Trypanosoma cruzi BM Lopez (TcIa) assessed as inhibition of parasite growth incubated for 96 hrs followed by incubation with resazurin for 4 to 6 hrs by resazurin dye based fluorescence analysis; type: functional, organism-based
# Trypanosoma cruzi [4] = assay: Antiparasitic activity against epimastigote form of Trypanosoma cruzi DA (TcI) assessed as inhibition of parasite growth incubated for 96 hrs followed by incubation with resazurin for 4 to 6 hrs by resazurin dye based fluorescence analysis; type: functional, organism-based
# [5] = Cytotoxicity against human MRC5 cells; type: toxicity, cell-based
# [6] = Selectivity index, ratio of IC50 for cytotoxicity against human MRC5 cells to IC50 for antiparasitic activity against epimastigote form of Trypanosoma cruzi Y (TcII); type: toxicity, cell-based; settings: read-out: Ratio IC50
# [7] = Selectivity index, ratio of IC50 for cytotoxicity against human MRC5 cells to IC50 for antiparasitic activity against epimastigote form of Trypanosoma cruzi SOL (TcV); type: toxicity, cell-based; settings: read-out: Ratio IC50
# [8] = Selectivity index, ratio of IC50 for cytotoxicity against human MRC5 cells to IC50 for antiparasitic activity against epimastigote form of Trypanosoma cruzi BM Lopez (TcIa); type: toxicity, cell-based; settings: read-out: Ratio IC50
# [9] = Selectivity index, ratio of IC50 for cytotoxicity against human MRC5 cells to IC50 for antiparasitic activity against epimastigote form of Trypanosoma cruzi DA (TcI); type: toxicity, cell-based; settings: read-out: Ratio IC50
# Trypanosoma cruzi [10] = assay: Antiparasitic activity against trypomastigote form of Trypanosoma cruzi SOL (MHOM/ES/2008/SOL; DTU V) assessed as inhibition of parasite growth incubated for 96 hrs followed by incubation in dark with resazurin for 4 to 6 hrs by resazurin dye based fluorescence analysis; type: functional, organism-based
# [11] = Selectivity index, ratio of IC50 for cytotoxicity against human MRC5 cells to IC50 for antiparasitic activity against trypomastigote form of Trypanosoma cruzi SOL (TcV); type: toxicity, cell-based; settings: read-out: Ratio IC50
# Quadruplex DNA [12] = assay: Stabilization of Trypanosoma cruzi G-quadruplex RCr DNA (FAM-5'-GGGGACGGGAATGGGGGTGCATGAGGGG-3'-TAMRA) assessed as change in apparent melting temperature at 5 uM by FRET melting analysis; type: nucleic-acid assay
# Quadruplex DNA [13] = assay: Stabilization of Trypanosoma cruzi G-quadruplex MCr DNA (FAM-5'-GTGGAGGGGGAGGGTCATGGGG-3'-TAMRA) assessed as change in apparent melting temperature at 5 uM by FRET melting analysis; type: nucleic-acid assay
# Quadruplex DNA [14] = assay: Stabilization of Trypanosoma cruzi G-quadruplex TCr DNA (FAM-5'-GGGAGGGACGGATGGGCAGAAACGGG-3'-TAMRA) assessed as change in apparent melting temperature at 5 uM by FRET melting analysis; type: nucleic-acid assay
# Quadruplex DNA [15] = assay: Stabilization of human telomere G-quadruplex F21T DNA (FAM-5'-GGGTTAGGGTTAGGGTTAGGG-3'-TAMRA) assessed as change in apparent melting temperature at 5 uM by FRET melting analysis; type: nucleic-acid assay
# Quadruplex DNA [16] = assay: Stabilization of human proto-oncogene G-quadruplex MYC DNA (FAM-5'-TTGAGGGTGGGTAGGGTGGGTAA-3'-TAMRA) assessed as change in apparent melting temperature at 5 uM by FRET melting analysis; type: nucleic-acid assay
# dsDNA [17] = assay: Binding affinity to human duplex FdxT DNA (FAM-5'-TATAGCTAT-peg-TATAGCTATA-3'-TAMRA) at 5 uM by FRET melting analysis; type: nucleic-acid assay
# Quadruplex DNA [18] = assay: Stabilization of Trypanosoma cruzi G-quadruplex RCr DNA (FAM-5'-GGGGACGGGAATGGGGGTGCATGAGGGG-3'-TAMRA) at 10 uM by FRET melting analysis; type: nucleic-acid assay
# Quadruplex DNA [19] = assay: Stabilization of human telomere G-quadruplex F21T DNA (FAM-5'-GGGTTAGGGTTAGGGTTAGGG-3'-TAMRA) at 5 uM in presence of 1 to 10 uM double stranded ds26 DNA by FRET melting analysis; type: nucleic-acid assay
# Quadruplex DNA [20] = assay: Stabilization of Trypanosoma cruzi G-quadruplex RCr DNA (FAM-5'-GGGGACGGGAATGGGGGTGCATGAGGGG-3'-TAMRA) at 5 uM in presence of 1 to 10 uM double stranded ds26 DNA by FRET melting analysis; type: nucleic-acid assay
# Quadruplex DNA [21] = assay: Binding affinity to Trypanosoma cruzi G-quadruplex RCr DNA (FAM-5'-GGGGACGGGAATGGGGGTGCATGAGGGG-3'-TAMRA) assessed as broadening of imino proton signals with delta shift at 1 equiv. by 1H-NMR analysis; type: nucleic-acid assay
# Quadruplex DNA [22] = assay: Binding affinity to Trypanosoma cruzi G-quadruplex MCr DNA (FAM-5'-GTGGAGGGGGAGGGTCATGGGG-3'-TAMRA) assessed as broadening of imino proton signals at 1 equiv. by 1H-NMR analysis; type: nucleic-acid assay
# Quadruplex DNA [23] = assay: Binding affinity to Trypanosoma cruzi G-quadruplex TCr DNA (FAM-5'-GGGAGGGACGGATGGGCAGAAACGGG-3'-TAMRA) assessed as broadening of imino proton signals at 1 equiv. by 1H-NMR analysis; type: nucleic-acid assay
# Quadruplex DNA [24] = assay: Binding affinity to Trypanosoma cruzi G-quadruplex RCr DNA (FAM-5'-GGGGACGGGAATGGGGGTGCATGAGGGG-3'-TAMRA) assessed as increase in melting temperature at DNA:compound concentration ratio of 1:2 by CD melting assay; type: nucleic-acid assay
# Quadruplex DNA [25] = assay: Binding affinity to Trypanosoma cruzi G-quadruplex MCr DNA (FAM-5'-GTGGAGGGGGAGGGTCATGGGG-3'-TAMRA) at DNA:compound concentration ratio of 1:1 to 1:2 by CD melting assay; type: nucleic-acid assay
# Quadruplex DNA [26] = assay: Binding affinity to Trypanosoma cruzi G-quadruplex RCr DNA (FAM-5'-GGGGACGGGAATGGGGGTGCATGAGGGG-3'-TAMRA) assessed as decrease in absorption with shift to higher wavelength at 30 uM by UV-Vis spectrophotometric analysis; type: nucleic-acid assay
# Quadruplex DNA [27] = assay: Binding affinity to Trypanosoma cruzi G-quadruplex MCr DNA (FAM-5'-GTGGAGGGGGAGGGTCATGGGG-3'-TAMRA) assessed as decrease in absorption with shift to higher wavelength at 30 uM by UV-Vis spectrophotometric analysis; type: nucleic-acid assay
# dsDNA [28] = assay: Binding affinity to double stranded ds26 DNA (unknown origin) assessed as decrease in absorbance with shift to lower wavelength at 30 uM by UV-Vis spectrophotometric analysis; type: nucleic-acid assay
# Trypanosoma cruzi [29] = assay: Potency index, ratio of Benznidazole IC50 to test compound IC50 for antiparasitic activity against trypomastigote form of Trypanosoma cruzi SOL (MHOM/ES/2008/SOL; DTU V) by resazurin dye based fluorescence analysis; type: functional
# Quadruplex DNA [30] = assay: Binding affinity to Trypanosoma cruzi G-quadruplex RCr DNA (FAM-5'-GGGGACGGGAATGGGGGTGCATGAGGGG-3'-TAMRA) assessed as decrease in absorption with shift to higher wavelength at 25 uM by UV-Vis spectrophotometric analysis; type: nucleic-acid assay
# Quadruplex DNA [31] = assay: Binding affinity to Trypanosoma cruzi G-quadruplex MCr DNA (FAM-5'-GTGGAGGGGGAGGGTCATGGGG-3'-TAMRA) assessed as decrease in absorption with shift to higher wavelength at 25 uM by UV-Vis spectrophotometric analysis; type: nucleic-acid assay
# dsDNA [32] = assay: Binding affinity to double stranded ds26 DNA (unknown origin) assessed as decrease in absorbance with shift to lower wavelength at 25 uM by UV-Vis spectrophotometric analysis; type: nucleic-acid assay
# [33] = Drug uptake in epimastigote form of Trypanosoma cruzi BM Lopez at 20 uM measured after 2 hrs by fluorescence microscopy; type: ADME
# [34] = Drug uptake in epimastigote form of Trypanosoma cruzi BM Lopez assessed as localization in kinetoplast and nucleus at 20 uM measured after 4 hrs by fluorescence microscopy; type: ADME
# [35] = Drug uptake in epimastigote form of Trypanosoma cruzi BM Lopez assessed as localization in kinetoplast and nucleus at 20 uM measured after 24 hrs by fluorescence microscopy; type: ADME
Compound,IC50 (Trypanosoma cruzi [1]) [µM],IC50 (Trypanosoma cruzi [2]) [µM],IC50 (Trypanosoma cruzi [3]) [µM],IC50 (Trypanosoma cruzi [4]) [µM],IC50 [5] [µM],selectivity ratio [6],selectivity ratio [7],selectivity ratio [8],selectivity ratio [9],IC50 (Trypanosoma cruzi [10]) [µM],selectivity ratio [11],ΔTm (Quadruplex DNA [12]) [°C],ΔTm (Quadruplex DNA [13]) [°C],ΔTm (Quadruplex DNA [14]) [°C],ΔTm (Quadruplex DNA [15]) [°C],ΔTm (Quadruplex DNA [16]) [°C],Activity (dsDNA [17]),Activity (Quadruplex DNA [18]),Activity (Quadruplex DNA [19]),Activity (Quadruplex DNA [20]),other results
C[C@]12SC(c3ccc4cccnc4c3)=CC1=C1CCCC1=C1C=C(c3ccc4cccnc4c3)S[C@@]12C,20.9,22.3,40.7,20.6,82.5,3.9,3.7,2,4,3.3,25,17,14,17,17,17,inactive,Active,Active,Active,Activity (Quadruplex DNA [21]): Active; Activity (Quadruplex DNA [22]): Active; Activity (Quadruplex DNA [23]): Active; ΔTm (Quadruplex DNA [24]): 3.81 °C; Activity (Quadruplex DNA [25]): Active; Activity (Quadruplex DNA [26]): Active; Activity (Quadruplex DNA [27]): Active; Activity (dsDNA [28]): inactive; Ratio IC50 (Trypanosoma cruzi [29]): 17
Cc1sc(-c2cccc3cc[n+](C)cc23)cc1C1=C(c2cc(-c3cccc4cc[n+](C)cc34)sc2C)CCC1.[I-].[I-],19.5,20.8,30.1,21.2,61.4,3.1,2.9,2,2.9,1.5,40.9,17,14,17,17,17,inactive,Active,Active,Active,Activity (Quadruplex DNA [21]): Active; Activity (Quadruplex DNA [22]): Active; Activity (Quadruplex DNA [23]): Active; ΔTm (Quadruplex DNA [24]): 6.98 °C; Activity (Quadruplex DNA [25]): Active; Activity (Quadruplex DNA [30]): Active; Activity (Quadruplex DNA [31]): Active; Activity (dsDNA [32]): inactive; Drug uptake [33]: Active; Drug uptake [34]: Active; Drug uptake [35]: Active; Ratio IC50 (Trypanosoma cruzi [29]): 38
